Molecules are shown by their SMILES.

For `CS(=O)c1nnnn1-c1ccc([N+](=O)[O-])cc1` (stereo unspecified), the logP (in general, the decadic logarithm of the partition coefficient of the neutral form, usually between octanol and water) amounted to 1.4. `CCCCCCCCS(=O)c1nnnn1-c1ccc([N+](=O)[O-])cc1` (stereo unspecified) came in with a logP of 4.7. For `CCCS(=O)(=O)c1nnnn1-c1ccc([N+](=O)[O-])cc1`, the logP was 2.7. In turn, `CN(C)c1ccc(-n2nnnc2S(C)(=O)=O)cc1` displayed a lipophilicity (logP) of 2.7.

As for `CCCCCCS(=O)(=O)c1nnnn1-c1ccc([N+](=O)[O-])cc1`, the log partition coefficient (logP) was found to be 4.3.

Turning to `CC(=O)Oc1ccc(-n2nnnc2S(C)(=O)=O)cc1`, the log partition coefficient (logP) came out at 1.6. Turning to `CS(=O)(=O)c1nnnn1Cc1ccc([N+](=O)[O-])cc1`, the logP was found to be 2.1. `CCCCCCS(=O)c1nnnn1-c1ccc([N+](=O)[O-])cc1` (stereo unspecified) registered a logP of 3.5. For `Cc1ccc(-n2nnnc2S(C)(=O)=O)cc1`, the logP was determined as 2.5. As for `CS(=O)(=O)c1nnnn1C1CCCCC1`, the figure is 2.1. Take `CS(=O)(=O)c1nnnn1-c1cccc(C(F)(F)F)c1`: the logP came out at 2.9.

The values above are taken from the SangsterLogP compilation.
